Values joined by “and” are separate entries in the source; they are usually repeats but may differ in a detail not shown here. Equal values may be shown once. Read-outs that look alike come from different tables or passages of the source.
How the values were obtained:
Format in all cases: in vivo, human
patients [1] = test system: patients
[2] = test system: patients suffering from ischemic heart disease; test: Tolerance: occurrence and severity of adverse events (Example 1)
Description: The secondary end-point was patient tolerance to the procedure.
Cumulative results on the severity of the three subjective symptoms of the composite (chest pain, dyspnea, flushing) rated from 0 to 30. Cumulative results on the severity of the three subjective symptoms of the composite (chest pain, dyspnea, flushing) rated from 0 to 30.

patients [3] = test: Priming dose effect with the sequential administration mode (Example 5); settings: N = 10
Description: Again there was no difference between the two methods for both peak and mean velocities.

[4] = DIP dose 28 μg/kg, ADE 140 μg/kg/min
[5] = DIP dose 35 μg/kg, ADE 140 μg/kg/min, listed as ADE
[6] = DIP dose 40 μg/kg, ADE 140 μg/kg/min, listed as ADE
[7] = DIP4 (n = 5), dipyridamole 35 μg/kg
[8] = DIP5 (n = 30), dipyridamole 28 μg/kg
[9] = DIP6 (n = 5), dipyridamole 23 μg/kg
[10] = TOTAL (n = 40), all dipyridamole doses
[11] = all 40 patients, ADE 140 μg/kg/min, All SC (DIP 4/5/6)

## Nc1ncnc2c1ncn2[C@@H]1O[C@H](CO)[C@@H](O)[C@H]1O [adenosine]
Patients [1]; DIP dose 28 μg/kg bolus alone, ADE 140 μg/kg/min 3 min
  PV Max, individual patient: 84 cm/sec
Patients [1]; [4]
  MV Max, individual patient: 64 cm/s
  MV Min, individual patient: 20 cm/s
  PV Min, individual patient: 27 cm/sec
Patients [1]; DIP dose 35 μg/kg bolus alone, ADE 140 μg/kg/min 3 min, listed as ADE
  PV Max, individual patients: 88 cm/sec and 84 cm/sec
Patients [1]; [5]
  MV Max, individual patients: 71 cm/s and 61 cm/s
  MV Min, individual patients: 21 cm/s and 23 cm/s
  PV Min, individual patients: 25 cm/sec and 32 cm/sec
Patients [1]; DIP dose 40 μg/kg bolus alone, ADE 140 μg/kg/min 3 min, listed as ADE
  PV Max, individual patients: 92 cm/sec and 112 cm/sec
Patients [1]; DIP dose 40 μg/kg, ADE 140 μg/kg/min
  PV Min, individual patients: 33 cm/sec
Patients [1]; [6]
  MV Max, individual patients: 67 cm/s and 86 cm/s
  MV Min, individual patients: 23 cm/s and 25 cm/s
[2]; [7]
  Severity of dyspnea: 1.4 ± 1.95
  Severity of flushing: 2.9 ± 2.88
[2]; DIP4 (n = 5): SC dipyridamole 35 μg/kg + adenosine 70 μg/kg/min vs adenosine alone 140 μg/kg/min
  Severity of chest pain: 1.2 ± 2.68
[2]; [8]
  Severity of dyspnea: 2.33 ± 2.59
  Severity of flushing: 2.35 ± 2.53
[2]; DIP5 (n = 30): SC dipyridamole 28 μg/kg + adenosine 70 μg/kg/min vs adenosine alone 140 μg/kg/min
  Severity of chest pain: 1.12 ± 1.95
[2]; [9]
  Severity of dyspnea: 5 ± 3.08
  Severity of flushing: 3.2 ± 3.42
[2]; DIP6 (n = 5): SC dipyridamole 23 μg/kg + adenosine 70 μg/kg/min vs adenosine alone 140 μg/kg/min
  Severity of chest pain: 0 ± 0
[2]; [10]
  Severity of chest pain: 0.99 ± 1.93
  Severity of dyspnea: 2.55 ± 2.71
  Severity of flushing: 2.52 ± 2.63
[2]; [11]
  Chest pain, frequency: 22.5%
  Dyspnea, # patients reporting events: 20
  Dyspnea, frequency: 50%
  Flushing, # patients reporting events: 21
  Flushing, frequency: 52.5%
[2]; all 40 patients, ADE adenosine alone 140 μg/kg/min, All SC (DIP 4/5/6) dipyridamole 23, 28 or 35 μg/kg + adenosine 70 μg/kg/min
  Chest pain, # patients reporting events: 9
Patients [3]; ADE 140 μg/kg/min vs C sequential (Dip 40 μg/kg + Ade 70 μg/kg/min), listed as ADE
  Return to BL, individual patients: 30 seconds (2×) and 60 seconds (3×) and 50 seconds and 35 seconds (2×) and 40 seconds and 28 seconds
Patients [3]; ADE 140 μg/kg/min vs C sequential (Dip 40 μg/kg bolus + Ade 70 μg/kg/min over 2 minutes), listed as ADE
  Time to peak, individual patients: 70 seconds and 50 seconds (2×) and 75 seconds and 60 seconds (2×) and 35 seconds and 38 seconds and 90 seconds and 40 seconds
Patients [3]; sequential administration
  Return to BL, Mean: 43 s
  Return to BL, Total: 428 s
  Time to peak, Mean: 57 s
  Time to peak, Total: 568 s

From patent US20090185973A1, “METHODS, COMPOSITIONS, UNIT DOSAGE FORMS, AND KITS FOR PHARMACOLOGIC STRESS TESTING WITH REDUCED SIDE EFFECTS” (ADENOBIO N.V., priority 2008, published 2009)
